According to patent publication US20070212700A1, “Methods of using and analyzing biological sequence data” (THE BOARD OF REGENTS OF THE UNIVERSITY OF TEXAS SYSTEM, priority 2005, published 2007):

Columns and labels:
[1] = tested on: biotinylated oriented peptide libraries (group I PPxY, group II PPLP, group III PPR, group IV pS/pT-P); experiment: Oriented peptide library binding assay (ELISA) for WW domain specificity
Excerpt: FIGS. 25A-D: Assays for binding affinity and specificity in WW domains. FIG. 25A: five N-terminal biotinylated oriented peptide libraries were constructed to present either a proline-only control (biotin-Z-GMAxxxxPxxxxAKKK (SEQ ID NO:162)) or the four different characteristic WW domain binding motifs: group I-oriented (biotin-Z-GMAxxxPPxYxxxAKKK-C (SEQ ID NO:163)), group II-oriented (biotin-Z-GMAxxxPPLPxxxAKKK (SEQ ID NO:164)), group III-oriented (biotin-Z-GMAxxxPPRxxxAKKK (SEQ ID NO:165)), and group IV-oriented (biotin-Z-GMAxxxxpSPxxxxAKKK (SEQ ID NO:166)), where Z is 6-aminohexanoic acid, pS is phosphoserine, and x denotes all amino acids except Cys. Binding to these peptides indicte affinity for the consensus motifes listed in FIG. 25A (SEQ ID NO:167-171). […] FIG. 25C: binding specificity of artificial WW domains from the CC55 set. Binding is reported in fold above background binding in the absence of target peptides. Shown are the mean and standard deviation of at least four independent assays. FIG. 25D: the binding specificity of additional artificial and natural WW domains.
An oriented peptide library binding assay was developed for measuring WW domain specificity, and a set of natural and artificial sequences was studied. Four biotinylated degenerate peptide libraries were constructed, each oriented around one group-specific WW recognition motif, and binding was detected using an ELISA assay (see FIGS. 25A and 25B). For example, the group I oriented peptide library was biotin-Z-GMAxxxPPxYxxxAKKK (SEQ ID NO:163), where Z is 6-aminohexanoic acid and x stands for any amino acid except cysteine (theoretical degeneracy of 8.9×10^8 sequences). A fifth proline-oriented library was also made as a control for non-specific binding. Natural WW domains that folded in the work described above were subjected to this assay. […] Similarly, the assay confirms known group III (FE65) and IV (Pin1) domains.

PPxY-containing peptide = experiment: Peptide binding to wild-type and mutant Nedd4.3 WW domains by isothermal titration calorimetry (double mutant cycle); details: Nedd4.3 WW domain
Excerpt: FIGS. 6A-C: A spatially distributed network underlying WW specificity. FIG. 6A: two views of the Nedd4.3 WW domain (in blue CPK), with residues comprising the cluster of eight co-evolving residues as red CPK with a transparent van der Waals surface. The cluster forms a physically connected network that links binding site residues at positions 21, 23, and 28 with the opposite side residues at positions 3 and 4 through a few intervening residues at positions 6, 8, and 22. FIG. 6B: the thermodynamic mutant cycle formalism for measuring energetic coupling between a pair of mutations. The method involves measuring equilibrium dissociation constants for peptide binding for four proteins: wild-type (WT), a mutation at one site (M1), a mutation at a second site (M2), and the double mutation M1, M2. The fold effect of M1 is calculated for the wild type background (X1) or for the background of the second mutation (X2). The thermodynamic coupling parameter Ω is defined as the ratio of these two fold effects (X1/X2)— the degree to which the effect of one mutation depends on the second. FIG. 6C: double mutant cycle analysis of co-evolving positions in the N39 (Nedd4.3) WW domain. […] Peptide binding to wild-type and mutant WW domains was measured using isothermal titration calorimetery. […]

| Substance | binding specificity / binding class [1] | fold effect of single mutation on peptide binding relative to wild-type (PPxY-containing peptide; PPxY-containing peptide, ITC) | effect of mutation in the background of T28A (PPxY-containing peptide; mutant cycle) |
| --- | --- | --- | --- |
| FE65: natural WW domain, known group III (SDLPAGWMRVQDTSGTYYWHIPTGTTQWEPPGR) | group III |  |  |
| CC55-15: artificial WW domain from the CC55 set (SEQ ID NO:35) (AGLPQGWEAAFDNSGAVYYVNPNTGKTQWERPCLEN) | group III binding profile |  |  |
| L3A: alanine mutant at position 3 of the Nedd4.3 WW domain (GPAPPGWEERTHTDGRVFFINHNIKKTQWEDPRM) |  | 5.15+/−0.99 fold | diminished |
| Nedd4.3: natural group I WW domain, Nedd4.3 (N39) (GPLPPGWEERTHTDGRVFFINHNIKKTQWEDPRM) | specific interaction with the PPxY-containing sequences |  |  |
